The values that follow come from publication PMC3407203, “Bisphenol A Binds to the Local Anesthetic Receptor Site to Block the Human Cardiac Sodium Channel” (PLoS ONE, 2012).

The target of series [1] is T1, hNav1.5 (Homo sapiens, UniProt Q14524).
T1 construct: expressed in transfected cells; host or cells: HEK293
The series is described as follows: Activation and current decay of hNav1.5, whole-cell patch clamp. The settings on record: post 100 µM BPA. In kind it is cell-based. The method, then: . The sodium channel conductance GNa was calculated using the following equation: […]
where INa is the amplitude of the current at the voltage Vm, and Erev is the reversal potential for sodium, which was determined for each cell individually. Activation curves were derived by plotting normalized GNa as a function of test potential and fitted using the Boltzmann equation: […]
where GNa,Max is the maximum conductance, Vhalf is the membrane potential at half-maximal activation, Vm is the membrane voltage and k is the slope factor.
Decay time constants were determined by fitting current recordings at test pulses to −10 mV for 40 ms from peak with a single exponential fit.
Background: In patch-clamp work, channel activity is measured electrically.

In series [2] the target is T1, hNav1.5. The series is described as follows: Tonic block of hNav1.5 currents, whole-cell patch clamp in transfected HEK293 cells. The series is classed as cell-based. The settings on record: for Kd: test pulse −10 mV at 0.2 Hz, room temperature, read-out: Kd of tonic block (Hill fit). The method, then:
(§1) The plasmid DNA of hNav1.5 in pTracer was used (gift from Dirk Isbrandt, Hamburg, Germany) for mutagenesis of F1760A (Qickchange XL kit, Qiagen GmbH, Hilden) and was performed according to the instructions of the manufacturer. HEK293 cells were maintained in Dulbecco’s Modified Eagle’s Medium (Invitrogen, Carlsbad, CA), supplemented with 10% fetal bovine serum, 100 U/ml penicillin and 100 µg/ml streptomycin, and incubated at 37°C with 5% CO2. […] Cells were transfected at 40–70% confluency using Nanofectin (PAA Laboratories GmbH, Pasching, Austria), according to manufacturer’s instructions, with 1 µg of hNav1.5 or the F1760A mutant of hNav1.5 and 0.5 µg EGFP, and distributed onto several 35 mm dishes on the following day. […] Only cells with robust green fluorescence were included in the analysis.
Whole-cell patch-clamp experiments were performed at room temperature using an Axopatch 200A operated by Clampex 9.2 software (Axon Instruments, Molecular Devices, USA) and 1–2 MΩ glass electrodes (WPI Inc, USA). […] All reagents were purchased from Sigma Chemical Company (Deisenhofen, Germany) unless otherwise noted. The tip of a constantly running gravity-driven perfusion system was positioned close to the recorded cell and drugs were applied by switching to bath solution containing the indicated concentration. […] Capacitive transients were cancelled, and series resistances (<5 MΩ) were compensated by 65–95%. Leak currents were subtracted digitally online using the P/4 procedure following the test pulses except for recordings of use dependency, where no leak correction was used. Currents were filtered at 10 kHz and sampled at 100 kHz, except for steady-state fast inactivation, where a sampling rate of 20 kHz was used.Recordings were obtained 4 min after establishing the whole-cell configuration. […] The block occurring 15 pulses after BPA or ETOH application (Ipost/Ipre = [drawing 1] ) was used as indicator for tonic block. The resulting single dose response data were fitted with a Hill function using a Levenberg-Marquard algorithm of Origin’s non linear curve fitter, where start and end were set to 0 and 1, respectively.

Series [3] has as its target T1, hNav1.5. The series is described as follows: Use-dependent current decline of hNav1.5, repetitive pulsing, whole-cell patch clamp. The series is classed as cell-based. The settings on record: for use-dependent block: 30 µM, WT hNav1.5, Vhold −120 mV. From the text: […] Current responses were normalized to the first recorded pulse and the available currents at the 30th pulses were compared.

On the set-up of series [4]: method as in PMID 12387626. The settings on record: cited from earlier work.
Series [5] concerns the target T2, F1760A mutant of hNav1.5 (Homo sapiens, UniProt Q14524, F1760A).
T2 construct: expressed in transfected cells; host or cells: HEK293
The series is described as follows: Tonic block of F1760A mutant hNav1.5 currents, whole-cell patch clamp in transfected HEK293 cells. In kind it is cell-based. The settings on record: Vhold −120 mV, tested every 5 s, read-out: Kd of tonic block (Hill fit). The method, then: as §1
Whole-cell patch-clamp experiments were performed at room temperature using an Axopatch 200A operated by Clampex 9.2 software (Axon Instruments, Molecular Devices, USA) and 1–2 MΩ glass electrodes (WPI Inc, USA). […] All reagents were purchased from Sigma Chemical Company (Deisenhofen, Germany) unless otherwise noted. The tip of a constantly running gravity-driven perfusion system was positioned close to the recorded cell and drugs were applied by switching to bath solution containing the indicated concentration. […]

The conditions of series [6]: cited from earlier work.
Series [7] addresses T2, F1760A mutant of hNav1.5. Briefly: Use-dependent current decline of F1760A mutant hNav1.5, repetitive pulsing, whole-cell patch clamp. The series is classed as cell-based. The method, then: The plasmid DNA of hNav1.5 in pTracer was used (gift from Dirk Isbrandt, Hamburg, Germany) for mutagenesis of […] kit, Qiagen GmbH, Hilden) and was performed according to the instructions of the manufacturer. HEK293 cells were maintained in Dulbecco's Modified Eagle's Medium (Invitrogen, Carlsbad, CA), supplemented with 10% fetal bovine serum, 100 U/ml penicillin and 100 μg/ml streptomycin, and incubated at 37°C with 5% CO2. Briefly, HEK293 cells were plated at low density on 35 mm dishes 24 hours before transfection. […] Electrophysiology was performed 18-28 hours following transfections. Only cells with robust green fluorescence were included in the analysis.

Series [8] concerns the target T1, hNav1.5. The series is described as follows: Voltage dependence of steady-state fast inactivation of hNav1.5, whole-cell patch clamp. The series is classed as cell-based. The method, then: Whole-cell patch-clamp experiments were performed at room temperature using an Axopatch 200A operated by Clampex 9.2 software (Axon Instruments, Molecular Devices, USA) and 1–2 MΩ glass electrodes (WPI Inc, USA). […] All reagents were purchased from Sigma Chemical Company (Deisenhofen, Germany) unless otherwise noted. The tip of a constantly running gravity-driven perfusion system was positioned close to the recorded cell and drugs were applied by switching to bath solution containing the indicated concentration. […] Capacitive transients were cancelled, and series resistances (<5 MΩ) were compensated by 65–95%. Leak currents were subtracted digitally online using the P/4 procedure following the test pulses except for recordings of use dependency, where no leak correction was used. […] Fitting parameters (Kd) are given as best fit ± standard error.

The target in series [9] is T1, hNav1.5. The series is described as follows: Dissociation constants for resting (Kr) and inactivated (Ki) hNav1.5 channels, whole-cell patch clamp. The settings on record: determined with 30 µM drug; read-out: Kr, dissociation constant for resting channels. In kind it is cell-based. The method, then:
The dissociation constant for the resting channels, Kr, of the applied drugs were determined according to [17], [18]: with [drug] being the drug concentration present and Brest being the detected block of resting channels. […] This potential was determined for each cell individually by the above described protocol for steady-state fast inactivation.

T2 sequence (Q14524 whole entry F1760A): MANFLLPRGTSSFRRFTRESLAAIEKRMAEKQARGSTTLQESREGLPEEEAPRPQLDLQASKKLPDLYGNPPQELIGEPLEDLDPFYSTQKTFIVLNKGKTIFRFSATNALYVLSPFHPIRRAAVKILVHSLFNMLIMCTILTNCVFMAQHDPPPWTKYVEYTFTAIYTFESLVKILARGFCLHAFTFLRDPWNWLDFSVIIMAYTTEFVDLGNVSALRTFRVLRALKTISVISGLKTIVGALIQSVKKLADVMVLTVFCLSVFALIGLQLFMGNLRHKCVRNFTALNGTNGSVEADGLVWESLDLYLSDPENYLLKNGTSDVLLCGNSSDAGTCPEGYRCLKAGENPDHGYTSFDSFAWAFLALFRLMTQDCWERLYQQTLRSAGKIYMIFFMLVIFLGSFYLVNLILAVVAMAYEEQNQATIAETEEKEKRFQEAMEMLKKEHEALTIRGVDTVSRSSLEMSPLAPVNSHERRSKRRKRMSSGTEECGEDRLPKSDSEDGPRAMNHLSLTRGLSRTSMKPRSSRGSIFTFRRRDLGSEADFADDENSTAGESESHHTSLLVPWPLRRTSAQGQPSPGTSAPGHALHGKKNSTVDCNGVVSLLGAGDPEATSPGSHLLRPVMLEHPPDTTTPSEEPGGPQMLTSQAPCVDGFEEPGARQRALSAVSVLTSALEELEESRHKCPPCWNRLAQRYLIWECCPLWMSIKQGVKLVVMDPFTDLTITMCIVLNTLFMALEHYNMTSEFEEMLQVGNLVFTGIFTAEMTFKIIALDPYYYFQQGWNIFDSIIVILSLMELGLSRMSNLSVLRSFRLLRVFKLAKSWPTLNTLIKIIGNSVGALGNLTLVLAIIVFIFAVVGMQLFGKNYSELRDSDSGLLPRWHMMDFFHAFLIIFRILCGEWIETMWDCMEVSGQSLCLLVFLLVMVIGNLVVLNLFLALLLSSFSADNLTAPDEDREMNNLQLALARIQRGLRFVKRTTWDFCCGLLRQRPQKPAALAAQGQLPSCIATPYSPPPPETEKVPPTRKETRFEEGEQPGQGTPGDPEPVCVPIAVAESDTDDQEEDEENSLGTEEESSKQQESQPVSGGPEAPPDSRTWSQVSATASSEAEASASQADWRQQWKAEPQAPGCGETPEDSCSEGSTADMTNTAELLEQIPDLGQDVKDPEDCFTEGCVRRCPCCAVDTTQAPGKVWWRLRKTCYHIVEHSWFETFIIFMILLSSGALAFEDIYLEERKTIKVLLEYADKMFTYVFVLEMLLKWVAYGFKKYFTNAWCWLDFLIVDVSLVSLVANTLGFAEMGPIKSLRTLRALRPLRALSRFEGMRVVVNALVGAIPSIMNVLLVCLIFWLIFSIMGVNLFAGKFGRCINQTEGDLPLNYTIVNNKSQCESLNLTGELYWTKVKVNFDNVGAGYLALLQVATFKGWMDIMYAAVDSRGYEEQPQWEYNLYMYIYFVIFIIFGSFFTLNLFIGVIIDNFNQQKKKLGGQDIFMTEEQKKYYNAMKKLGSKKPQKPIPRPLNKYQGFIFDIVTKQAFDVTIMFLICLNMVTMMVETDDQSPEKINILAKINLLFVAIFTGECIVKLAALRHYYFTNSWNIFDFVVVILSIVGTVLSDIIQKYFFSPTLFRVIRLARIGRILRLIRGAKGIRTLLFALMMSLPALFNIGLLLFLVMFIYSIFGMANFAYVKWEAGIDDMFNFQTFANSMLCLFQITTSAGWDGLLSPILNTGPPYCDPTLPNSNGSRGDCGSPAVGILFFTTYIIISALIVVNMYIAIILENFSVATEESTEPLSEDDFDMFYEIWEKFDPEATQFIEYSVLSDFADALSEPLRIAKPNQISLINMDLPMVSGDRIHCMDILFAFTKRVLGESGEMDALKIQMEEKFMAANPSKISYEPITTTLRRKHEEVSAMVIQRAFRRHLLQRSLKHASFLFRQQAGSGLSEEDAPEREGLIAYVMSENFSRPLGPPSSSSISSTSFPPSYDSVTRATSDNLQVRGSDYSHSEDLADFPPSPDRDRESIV
T1 sequence (Q14524 whole entry): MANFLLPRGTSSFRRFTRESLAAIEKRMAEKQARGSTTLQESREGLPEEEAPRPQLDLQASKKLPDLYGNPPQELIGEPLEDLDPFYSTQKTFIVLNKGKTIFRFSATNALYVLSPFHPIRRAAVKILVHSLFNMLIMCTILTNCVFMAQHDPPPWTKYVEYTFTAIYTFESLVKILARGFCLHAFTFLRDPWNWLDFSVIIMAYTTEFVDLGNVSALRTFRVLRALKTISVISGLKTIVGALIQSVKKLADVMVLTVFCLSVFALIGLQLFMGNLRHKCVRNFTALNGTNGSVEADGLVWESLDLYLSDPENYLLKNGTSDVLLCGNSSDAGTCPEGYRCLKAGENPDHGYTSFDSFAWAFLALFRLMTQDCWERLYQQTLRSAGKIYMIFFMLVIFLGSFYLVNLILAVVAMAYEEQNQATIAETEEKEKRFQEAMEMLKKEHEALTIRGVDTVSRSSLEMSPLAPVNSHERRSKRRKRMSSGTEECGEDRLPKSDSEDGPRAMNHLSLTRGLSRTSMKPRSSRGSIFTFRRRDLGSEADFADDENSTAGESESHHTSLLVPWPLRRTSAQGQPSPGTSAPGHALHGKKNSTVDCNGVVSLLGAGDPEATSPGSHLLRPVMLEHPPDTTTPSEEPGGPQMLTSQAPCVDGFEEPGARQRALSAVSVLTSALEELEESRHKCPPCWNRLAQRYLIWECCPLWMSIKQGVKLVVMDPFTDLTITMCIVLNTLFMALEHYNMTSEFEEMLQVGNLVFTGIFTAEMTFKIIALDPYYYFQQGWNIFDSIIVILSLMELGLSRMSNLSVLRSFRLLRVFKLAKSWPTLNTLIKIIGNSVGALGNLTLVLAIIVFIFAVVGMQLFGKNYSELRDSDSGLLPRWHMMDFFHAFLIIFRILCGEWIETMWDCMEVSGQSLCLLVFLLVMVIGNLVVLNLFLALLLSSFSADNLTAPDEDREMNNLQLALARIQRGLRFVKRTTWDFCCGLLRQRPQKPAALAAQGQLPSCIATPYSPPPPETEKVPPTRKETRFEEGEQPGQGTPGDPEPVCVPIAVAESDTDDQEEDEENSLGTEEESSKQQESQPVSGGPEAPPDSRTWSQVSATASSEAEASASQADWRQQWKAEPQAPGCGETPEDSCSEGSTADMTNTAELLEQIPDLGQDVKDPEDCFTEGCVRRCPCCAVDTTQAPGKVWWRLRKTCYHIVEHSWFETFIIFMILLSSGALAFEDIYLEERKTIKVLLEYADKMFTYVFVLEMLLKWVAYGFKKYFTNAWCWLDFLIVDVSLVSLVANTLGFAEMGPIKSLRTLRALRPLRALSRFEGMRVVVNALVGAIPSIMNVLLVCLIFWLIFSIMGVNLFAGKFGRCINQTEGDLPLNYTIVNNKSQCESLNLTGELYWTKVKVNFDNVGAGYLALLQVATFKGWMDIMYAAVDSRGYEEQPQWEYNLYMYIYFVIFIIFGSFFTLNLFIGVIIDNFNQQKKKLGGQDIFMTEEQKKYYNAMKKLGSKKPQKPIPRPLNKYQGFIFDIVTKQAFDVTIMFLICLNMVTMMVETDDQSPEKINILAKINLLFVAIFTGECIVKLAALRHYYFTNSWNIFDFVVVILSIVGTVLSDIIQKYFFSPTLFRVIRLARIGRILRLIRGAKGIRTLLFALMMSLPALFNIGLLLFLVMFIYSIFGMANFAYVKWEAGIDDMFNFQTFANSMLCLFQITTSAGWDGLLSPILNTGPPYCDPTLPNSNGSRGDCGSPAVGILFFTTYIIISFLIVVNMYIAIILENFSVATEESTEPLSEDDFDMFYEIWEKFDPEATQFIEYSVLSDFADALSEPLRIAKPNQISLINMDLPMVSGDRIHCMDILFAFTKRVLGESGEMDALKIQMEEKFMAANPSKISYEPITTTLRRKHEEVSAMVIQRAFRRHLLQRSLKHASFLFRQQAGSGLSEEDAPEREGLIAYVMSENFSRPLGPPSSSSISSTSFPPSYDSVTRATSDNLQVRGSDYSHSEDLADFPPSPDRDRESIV

Regarding `CC(C)(c1ccc(O)cc1)c1ccc(O)cc1` [BPA, Bisphenol A], the “τ of single exponential fit of current decay” value on hNav1.5 [1] (test pulse to −10 mV, pre 1.1±0.08 ms) turned out to be 1.13 ± 0.1 ms. For the same molecule, the Vhalf of activation on hNav1.5 [1] (pre −32.0±2.5 mV) was −32.9±3.7 mV. The Kd on hNav1.5 [2] (WT hNav1.5, Vhold −90 mV) worked out at 25.4 ± 1.3 µM; on hNav1.5 [2] (WT hNav1.5, Vhold −120 mV), 74 ± 7.6 µM; at F1760A mutant of hNav1.5 [5], 104 ± 6.7 µM; on hNav1.5 [9], 58.6 ± 8 µM. Further, the “lowest concentration tested at which hNav1.5 currents were not affected (no effect level, NOEL)” value at hNav1.5 [2] (tonic block) was determined as 100 nM. In addition, the “lowest concentration to have a significant effect on hNav1.5” value on hNav1.5 [2] (tonic block, Fig. 1A) stood at 1 µM. Besides, the use-dependent block result on hNav1.5 [3] was “significant use-dependent block”. On hNav1.5 [3] (all frequencies tested (1 to 100 Hz), WT hNav1.5), the use-dependent current decline entry is “enhance use-dependent current decline”. For the same molecule, the “half-life in the body” value in series [4] is less than 6 h. The “mean human blood levels” value in series [6] is recorded as approximately 10 nM. In addition, the “highest reported blood level” value in [6] (human) is on record as 290 nM. Besides, the “use-dependent block in F1760A compared to WT” value on F1760A mutant of hNav1.5 [7] (30 µM) is “robustly reduced”. For the same molecule, the “hyperpolarizing shift of Vhalf of steady-state fast inactivation” value on hNav1.5 [8] (100 µM, n = 9) was 15.8±1.1 mV. Moreover, on hNav1.5 [8] (post application of 100 µM BPA, pre 5.6±0.3), the “slope factor k of steady-state fast inactivation” value came to 6.5±0.2. For the same molecule, the “Vhalf of steady-state fast inactivation” value at hNav1.5 [8] (post application of 100 µM BPA, pre −89.3±1.5 mV, n = 9) is recorded as −105.1±2.1 mV.

For the molecule `Cc1cccc(C)c1OCC(C)N` (centres unmarked) [mexiletine, reference compound], the tonic block result at hNav1.5 [2] (30 µM, WT hNav1.5) is “almost absent”. For the same molecule, the use-dependent block result at hNav1.5 [3] was “significant use-dependent block”. The “tonic and use-dependent block in F1760A compared to WT” value on F1760A mutant of hNav1.5 [7] (150 µM) is “reduced tonic and use-dependent block”.
